Results: patent US20260167673A1, “NOVEL POLYPEPTIDE, POLYPEPTIDE DERIVATIVE AND USE THEREOF” (NANJING ANJI BIOTECHNOLOGY CO., LTD., priority 2023, published 2026)
Marks after values point to notes of the source that are not given here. Where no end group is shown, it is not given here.

Experiments:
[1] = test system: human cholangiocarcinoma cells QBC939; experiment: CCK8 proliferation inhibition, QBC939; format: cell-based; conditions: QBC939, 50 μM, 48 h
Experimental: (§1) Incubation was continued for 4 h in a cell incubator, an absorbance was measured at 450 nm, and a proliferation inhibition was calculated. Data was presented as mean±SD, and GraphPad Prism 5.0 statistical software was used. A t-test was used for comparison between two groups, while One-way Anova (Dunnett) was used for comparison among a plurality of groups.

[2] = test system: human breast cancer cells SK-BR-3; experiment: CCK8 proliferation inhibition, SK-BR-3; format: cell-based; conditions: SK-BR-3, 50 μM, 48 h
Experimental: as §1

[3] = test system: human histiocytic lymphoma cells U937; experiment: CCK8 proliferation inhibition, U937; format: cell-based; conditions: U937, 50 μM, 48 h
Experimental: as §1

[4] = test system: human malignant melanoma cells A375; experiment: CCK8 proliferation inhibition, A375; format: cell-based; conditions: A375, 50 μM, 48 h
Experimental: as §1

[5] = test system: human nasopharyngeal carcinoma cells CNE-2Z; experiment: CCK8 proliferation inhibition, CNE-2Z; format: cell-based; conditions: 50 μM, 48 h
Experimental: as §1

[6] = test system: human gastric cancer cells MGC-803; experiment: CCK8 proliferation inhibition, MGC-803; format: cell-based; conditions: MGC-803, 50 μM, 48 h
Experimental: as §1

[7] = test system: subcutaneous transplanted tumor model of tongue squamous cell carcinoma cells CAL27; experiment: CAL27 subcutaneous transplanted tumor model (Example 7); format: in vivo, BALB/c nude mice; conditions: 2.7 μM/kg, FIG. 10
Experimental: (1) A large number of human tongue squamous cell carcinoma CAL27 cells were cultured and digested with a 0.25% trypsin solution. After digestion was terminated, a cell suspension was centrifuged at 1000 rpm for 5 min, and the cells were resuspended in a serum-free DMEM culture medium and counted. The cell concentration was adjusted to 5×10^7 cells/mL.
(2) BALB/c nude mice (4-6 week old, female, weighing 14-16 g, adaptively fed in an SPF animal feeding room for 1 week) were inoculated with 100 μL of cell suspensions of corresponding groups under the left axilla, with an injection volume of 5×10^6 cells/mouse;
(3) After inoculation, the tumor growth at the inoculation sites of the nude mice was closely observed. On the 7th day after inoculation, white nodules appeared at the inoculation sites and could move subcutaneously upon touch. As the tumor tissues grew, hard tumor blocks gradually formed at the inoculation sites, and the average volume of the tumor tissues reached 80 mm^3 in about 14 days. The BALB/c nude mice were randomly divided into 3 groups (a normal saline group served as a blank control, and the dose of the micropeptide HMMW and the novel polypeptide HMMW15-51 was 2.7 μM/kg), with 10 mice in the blank group and 6 mice in each other group. […]
(4) The volume of the transplanted tumor was measured and recorded every three days. […]

[8] = test system: human promyelocytic leukemia cells HL60; experiment: CCK8 proliferation inhibition, HL60; format: cell-based; conditions: HL60, 50 μM, 48 h
Experimental: as §1

[9] = test system: human neuroblastoma cells SH-SY5Y; experiment: CCK8 proliferation inhibition, SH-SY5Y; format: cell-based; conditions: 50 μM, 48 h
Experimental: as §1

[10] = test system: human diffuse large B-cell lymphoma (DLBCL) cells WSU-DLCL2; experiment: CCK8 proliferation inhibition, WSU-DLCL2; format: cell-based; conditions: WSU-DLCL2, 50 μM, 48 h
Experimental: as §1

[11] = test system: human acute lymphoblastic leukemia cells CEM/C1; experiment: CCK8 proliferation inhibition, CEM/C1; format: cell-based; conditions: CEM/C1, 50 μM, 48 h
Experimental: as §1

[12] = test system: human chronic myeloid leukemia cells K562; experiment: CCK8 proliferation inhibition, K562; format: cell-based; conditions: K562, 50 μM, 48 h
Experimental: as §1

[13] = test system: human kidney cancer cells Ketr-3; experiment: CCK8 proliferation inhibition, Ketr-3; format: cell-based; conditions: Ketr-3, 50 μM, 48 h
Experimental: as §1

[14] = test system: human liver cancer Hep3B cells; experiment: Transwell metastasis inhibition, Hep3B; format: cell-based; conditions: 50 μmol/L, 48 h
Experimental: Melanoma, cervical cancer, ovarian cancer, liver cancer, and lung cancer cells were seeded into transwell chambers, with 100 μL per well. Different doses of the HMMW micropeptide and the novel polypeptide HMMW15-51 were added to each chamber as a treatment group, while no drug was added to a blank group. Then, 0.6 mL of a complete culture medium containing 10% FBS was added to the lower chambers of the transwell to stimulate cell metastasis, and the cells were cultured at 5% CO2 and 37° C. for 48 h. The culture solution was discarded from the wells. The cells were fixed with methanol at room temperature for 30 min, stained with 0.1% crystal violet at room temperature for 10 min, and rinsed with clean water. The upper layer nonmetastatic cells were wiped off with a cotton swab. The cells were observed under a microscope, and four fields of view were selected to take photos and count the cells. A metastasis inhibition (MI) was calculated according to a formula: […]
where Ntest represents the number of cell metastases in the treatment group, and Ncontrol represents the number of cell metastases in the blank control group.
Data was presented as mean±SD, and GraphPad Prism 5.0 statistical software was used.

[15] = test system: human ovarian cancer cells SKOV3; experiment: CCK8 proliferation inhibition, SKOV3 (Example 5); format: cell-based; conditions: SKOV3, 50 μM, 48 h
Experimental: as §1

[16] = test system: human acute promyelocytic leukemia cells NB4; experiment: CCK8 proliferation inhibition, NB4; format: cell-based; conditions: NB4, 50 μM, 48 h
Experimental: as §1

[17] = test system: human laryngeal epidermoid carcinoma cells HEp2; experiment: CCK8 proliferation inhibition, HEp2; format: cell-based; conditions: HEp2, 50 μM, 48 h
Experimental: as §1

[18] = test system: human bladder transitional cell carcinoma cells T24; experiment: CCK8 proliferation inhibition, T24; format: cell-based; conditions: T24, 50 μM, 48 h
Experimental: as §1

MERAGVPGFSPRRSSVEAKMQSTSCSVRKSSTVTAWPAVVLLLSWGQRRGG [HMMW]
Inhibition (%) [1]: 49.490 ± 2.138 % | OD [1]: 0.429 ± 0.018 | Inhibition (%) [2]: 53.710 ± 4.902 % | OD [2]: 0.507 ± 0.054 | Inhibition (%) [3]: 36.042 ± 2.134 % | OD [3]: 0.855 ± 0.029 | Inhibition (%) [4]: 49.572 ± 4.128 % | OD [4]: 0.491 ± 0.040 | Inhibition (%) [5]: 50.952 ± 4.312 % | OD [5]: 0.472 ± 0.042 | Inhibition (%) [6]: 41.094 ± 3.077 % | OD [6]: 0.675 ± 0.035 | in vivo tumorigenicity of CAL27 cells compared with normal saline control [7]: significantly inhibit | Inhibition (%) [8]: 47.264 ± 5.692 % | OD [8]: 0.578 ± 0.062 | Inhibition (%) [9]: 50.542 ± 4.982 % | OD [9]: 0.486 ± 0.049 | Inhibition (%) [10]: 44.365 ± 2.462 % | OD [10]: 0.731 ± 0.032 | Inhibition (%) [11]: 46.518 ± 1.484 % | OD [11]: 0.630 ± 0.017 | Inhibition (%) [12]: 51.933 ± 2.838 % | OD [12]: 0.618 ± 0.036 | Inhibition (%) [13]: 48.708 ± 4.852 % | OD [13]: 0.476 ± 0.045 | Inhibition (%) ([14]; Hep3B metastasis): 88.13*** % | Number of cell metastases ([14]; Hep3B): 70 ± 75.82 | Inhibition (%) [15]: 52.644 ± 4.018 % | OD [15]: 0.466 ± 0.040 | Inhibition (%) [16]: 47.692 ± 4.919 % | OD [16]: 0.740 ± 0.070 | Inhibition (%) [17]: 42.416 ± 2.236 % | OD [17]: 0.504 ± 0.020 | Inhibition (%) [18]: 51.562 ± 4.780 % | OD [18]: 0.460 ± 0.045
